Results reported in patent EP0187355A1, “Process for preparing beta-lactam antibiotics” (E.R. Squibb & Sons, Inc., priority 1981, dated 1982).
Structures can show the parent of a compound that is named as a salt. Where two headings read alike, the source gives them in different places.

Legend:
Assay in all cases: MIC, agar dilution
Format in all cases: cell-based
[1] = test system: Acinetobacter calcoaceticus, 8333; conditions: Acinetobacter calcoaceticus, 8333, 18 h, K-10 agar, 10^4 CFU, 37°C, read-out: M.I.C.
Experimental: (§1) The following methodology is used to determine the minimum inhibitory concentration (hereinafter referred to as MIC) of the […] of this invention.
(§2) The test organisms are grown in approximately 15-20 ml of Antibiotic Assay broth (Difco) by inoculating (in tubes) the broth with a loopful of the organism from a BHI (Difco) agar slant. The inoculated tubes are incubated at 37°C for 18 to 20 hours. These cultures are assumed to contain 10^9 colony forming units (hereinafter CFU) per milliliter. The cultures are diluted 1:100 to give a final inoculum level of 10^4 CFU; dilutions are made with K-10 broth^*.
(§3) The compounds are dissolved in the appropriate diluent at a concentration of 1000 µg/ml. Twofold dilutions are made in K-10 broth resulting in a range from 1000 µg/ml to 0.5 µg/ml. 1.5 ml of each dilution is placed into individual square petri dishes to which 13.5 ml of K-10 agar^** is added. The final drug concentration in the agar ranges from 100 µg/ml to 0.05 µg/ml. Organism growth control plates containing agar only are prepared and inoculated before and after the test plates. The organisms are applied to the agar surface of each plate with the Denley Multipoint Inoculator (which delivers approximately 0.001 ml of each organism) resulting in a final inoculum level of 10^4 CFU on the agar surface.
(§4) The plates are incubated at 37 °C for 18 hours and the MIC's are determined. The MIC is the lowest concentration of compound inhibiting growth of the organism.
(§5) The tables that follow are tabulated results obtained when the B-lactams of this invention are tested against various organisms. The number following each organism refers to the number of the organism in the collection of E. R. Squibb & Sons,.Inc., Princeton, New Jersey. […] The symbol "N.T." means not tested.

[2] = test system: Citrobacter freundii, 9518; conditions: K-10 agar, 10^4 CFU, 37°C, 18 hours, read-out: M.I.C.
Experimental: as §1, §2, §3, §4, §5

[3] = test system: Enterobacter aerogenes, 10078; conditions: Klebsiella aerogenes, 10078, 18 h, Enterobacter aerogenes, 10078; K-10 agar, 10^4 CFU, 37°C, 18 hours; read-out: M.I.C.
Experimental: as §1, §2, §3, §4, §5

Escherichia coli, 10857 = conditions: Escherichia coli, 10857, 18 h, K-10 agar, 10^4 CFU, 37°C
Experimental: as §1, §2, §3, §4, §5

Escherichia coli, 10896 = conditions: K-10 agar, 10^4 CFU, 37°C, 18 hours
Experimental: as §1, §2, §3, §4, §5

Escherichia coli, 10909 = conditions: K-10 agar, 10^4 CFU, 37°C, 18 hours
Experimental: as §1, §2, §3, §4, §5

Escherichia coli, 8294 = conditions: Escherichia coli, 8294, 18 h, K-10 agar, 10^4 CFU, 37°C
Experimental: as §1, §2, §3, §4, §5

[4] = test system: Klebsiella aerogenes, 10440; conditions: K-10 agar, 10^4 CFU, 37°C, 18 hours, read-out: M.I.C.
Experimental: as §1, §2, §3, §4, §5

[5] = test system: Klebsiella pneumoniae, 9527; conditions: Klebsiella pneumoniae, 9527, 18 h, K-10 agar, 10^4 CFU, 37°C, read-out: M.I.C.
Experimental: as §1, §2, §3, §4, §5

Proteus mirabilis, 3855 = conditions: Proteus mirabilis, 3855, 18 h, K-10 agar, 10^4 CFU, 37°C
Experimental: as §1, §2, §3, §4, §5

Proteus rettgeri, 8479 = conditions: Providencia rettgeri, K-10 agar, 10^4 CFU, 37°C, 18 hours, read-out: M.I.C.
Experimental: as §1, §2, §3, §4, §5

Proteus vulgaris, 9416 = conditions: K-10 agar, 10^4 CFU, 37°C
Experimental: as §1, §2, §3, §4, §5

[6] = test system: Pseudomonas aeruginosa, 8329; conditions: K-10 agar, 10^4 CFU, 37°C, 18 hours, read-out: M.I.C.
Experimental: as §1, §2, §3, §4, §5

[7] = test system: Pseudomonas aeruginosa, 9545; conditions: Pseudomonas aeruginosa, 9545, 18 h, K-10 agar, 10^4 CFU, 37°C, read-out: M.I.C.
Experimental: as §1, §2, §3, §4, §5

Salmonella typhosa, 1195 = conditions: Salmonella enterica, TYPHOSA, 18 h, K-10 agar, 10^4 CFU, 37°C
Experimental: as §1, §2, §3, §4, §5

[8] = test system: Serratia marcescens, 9783; conditions: Serratia marcescens, 9783, 18 h, K-10 agar, 10^4 CFU, 37°C, read-out: M.I.C.
Experimental: as §1, §2, §3, §4, §5

Shigella sonnei, 8449 = conditions: Shigella sonnei, 8449, 18 h, K-10 agar, 10^4 CFU, 37°C
Experimental: as §1, §2, §3, §4, §5

[9] = test system: Staphylococcus aureus, 10165; conditions: Staphylococcus aureus, 10165; K-10 agar, 10^4 CFU, 37°C, 18 hours; read-out: M.I.C.
Experimental: as §1, §2, §3, §4, §5

[10] = test system: Staphylococcus aureus, 1276; conditions: Staphylococcus aureus, 1276; K-10 agar, 10^4 CFU, 37°C, 18 hours; read-out: M.I.C.
Experimental: as §1, §2, §3, §4, §5

[11] = test system: Staphylococcus aureus, 2399; conditions: Staphylococcus aureus, 2399, 18 h, Staphylococcus aureus, 2399; K-10 agar, 10^4 CFU, 37°C, 18 hours; read-out: M.I.C.
Experimental: as §1, §2, §3, §4, §5

[12] = test system: Staphylococcus aureus, 2400; conditions: Staphylococcus aureus, 2400; K-10 agar, 10^4 CFU, 37°C, 18 hours; read-out: M.I.C.
Experimental: as §1, §2, §3, §4, §5

[13] = test system: Streptococcus faecalis, 9011; conditions: Enterococcus faecalis; Streptococcus faecalis, 9011; K-10 agar, 10^4 CFU, 37°C, 18 hours; read-out: M.I.C.
Experimental: as §1, §2, §3, §4, §5

[14] = test system: Enterobacter cloacae, 8236; conditions: Enterobacter cloacae, 8236, 18 h, K-10 agar, 10^4 CFU, 37°C
Experimental: as §1, §2, §3
(§6) The MIC is the lowest concentration of compound inhibiting growth of the organism.
(§7) The number following each organism refers to the number of the organism in the collection of E. R. Squibb & Sons,.Inc., Princeton, New Jersey. […] The symbol "N.T." means not tested.

Micrococcus luteus, 2495 = conditions: Micrococcus luteus, 2495, 18 h, K-10 agar, 10^4 CFU, 37°C, read-out: M.I.C.
Experimental: as §1, §2, §3, §6, §7

[15] = test system: Streptococcus agalactiae, 9287; conditions: Streptococcus agalactiae, 9287, 18 h, K-10 agar, 10^4 CFU, 37°C, read-out: M.I.C.
Experimental: as §1, §2, §3, §6, §7

Row | Structure (SMILES) | MIC [1] | MIC [2] | MIC [3] | MIC (Escherichia coli, 10857) | MIC (Escherichia coli, 10896) | MIC (Escherichia coli, 10909) | MIC (Escherichia coli, 8294) | MIC [4] | MIC [5] | MIC (Proteus rettgeri, 8479) | MIC [6] | MIC [7] | MIC (Salmonella typhosa, 1195) | MIC [8] | MIC (Shigella sonnei, 8449) | MIC [9] | MIC [10] | MIC [11] | MIC [12] | MIC [13] | other results
1 | CC1C(NC(=O)OCc2ccccc2)C(=O)N1S(=O)(=O)O (racemic) [Example 1, (±―cis)-4-Methyl-2-oxo-3-[[(phenylmethoxy)carbonyl]-amino]-1-azetidinesulfonic acid, potassium salt] | > 100 µg/mL | > 100 µg/mL | > 100 µg/mL | > 100 µg/mL | > 100 µg/mL | > 100 µg/mL | > 100 µg/mL | > 100 µg/mL | > 100 µg/mL | > 100 µg/mL | > 100 µg/mL | > 100 µg/mL | > 100 µg/mL | > 100 µg/mL | > 100 µg/mL | 100 µg/mL | 100 µg/mL | 50 µg/mL | 50 µg/mL | > 100 µg/mL | MIC (Proteus mirabilis, 3855; read-out: M.I.C.): > 100 µg/mL; MIC (Proteus vulgaris, 9416; 18 hours, read-out: M.I.C.): > 100 µg/mL; MIC [14]: > 100 µg/mL; MIC (Micrococcus luteus, 2495): > 100 µg/mL; MIC [15]: 100 µg/mL
2 | CC1C(NC(=O)Cc2ccccc2)C(=O)N1S(=O)(=O)O (racemic) [Example 4, (cis)-4-Methyl-2-oxo-3-[(phenylacetyl)amino]-1-azetidinesulfonic acid, potassium salt] | > 100 µg/mL | > 100 µg/mL | > 100 µg/mL | 50 µg/mL | 100 µg/mL | 50 µg/mL | 100 µg/mL | > 100 µg/mL | 100 µg/mL | 100 µg/mL | > 100 µg/mL | > 100 µg/mL | 100 µg/mL | > 100 µg/mL | 100 µg/mL | 100 µg/mL | 25 µg/mL | 25 µg/mL | 50 µg/mL | > 100 µg/mL | MIC (Proteus mirabilis, 3855; read-out: M.I.C.): > 100 µg/mL; MIC (Proteus vulgaris, 9416; 18 hours, read-out: M.I.C.): > 100 µg/mL; MIC [14]: > 100 µg/mL; MIC (Micrococcus luteus, 2495): 50 µg/mL; MIC [15]: 12.5 µg/mL
3 | CON=C(C(=O)NC1C(=O)N(S(=O)(=O)O)C1C)c1csc(N)n1 (racemic) [Example 7, [3α(Z),4α]-3-[[(2-Amino-4-thiazolyl) (methoxy-imino)acetyl]amino]-4-methyl-2-oxo-l-azetidinesulfonic acid, potassium salt] | 50 µg/mL | 0.2 µg/mL | 0.4 µg/mL | < 0.05 µg/mL | 0.2 µg/mL | 0.1 µg/mL | 0.2 µg/mL | 0.4 µg/mL | 0.1 µg/mL | < 0.05 µg/mL | > 100 µg/mL | 0.8 µg/mL | < 0.05 µg/mL | 0.4 µg/mL | 0.2 µg/mL | > 100 µg/mL | 100 µg/mL | 100 µg/mL | 50 µg/mL | > 100 µg/mL | MIC (Proteus mirabilis, 3855; read-out: M.I.C.): < 0.05 µg/mL; MIC (Proteus vulgaris, 9416; 18 hours, read-out: M.I.C.): < 0.05 µg/mL; MIC [14]: 0.2 µg/mL; MIC (Micrococcus luteus, 2495): 6.3 µg/mL; MIC [15]: 3.1 µg/mL
4 | CC1C(NC(=O)C(NC(=O)C(N)=O)c2cccs2)C(=O)N1S(=O)(=O)O (racemic) [Example 14, [3S-[3α(±),4β]]-3-[[[(aminooxoacetyl)amino]-2-thienylacetyl]amino]-4-methyl-2-oxo-1-azetidine-sulfonic acid, potassium salt] | 100 µg/mL | 1.6 µg/mL | 3.1 µg/mL | 0.4 µg/mL | 1.6 µg/mL | 0.8 µg/mL | 1.6 µg/mL | 3.1 µg/mL | 1.6 µg/mL | 0.8 µg/mL | 100 µg/mL | 3.1 µg/mL | 0.8 µg/mL | 3.1 µg/mL | 0.8 µg/mL | > 100 µg/mL | 50 µg/mL | 50 µg/mL | 100 µg/mL | > 100 µg/mL | MIC (Proteus mirabilis, 3855; read-out: M.I.C.): 0.8 µg/mL; MIC (Proteus vulgaris, 9416; 18 hours, read-out: M.I.C.): 0.8 µg/mL; MIC [14]: 3.1 µg/mL; MIC (Micrococcus luteus, 2495): 12.5 µg/mL; MIC [15]: 3.1 µg/mL
5 | CO/N=C(\C(=O)NC1C(=O)N(S(=O)(=O)O)C1(C)C)c1csc(N)n1 (racemic) [Example 25, [3±(Z)]-3-[[(2-Amino-4-thiazolyl) (methoxyimino)-acet^yl]amino]-4,4-dimethyl-2-oxo-1-azetidinesulfonic acid, potassium salt] | > 100 µg/mL | 25 µg/mL | 100 µg/mL | 6.3 µg/mL | 25 µg/mL | 25 µg/mL | 50 µg/mL | 100 µg/mL | 6.3 µg/mL | 0.8 µg/mL | > 100 µg/mL | > 100 µg/mL | 12.5 µg/mL | 100 µg/mL | 25 µg/mL | > 100 µg/mL | > 100 µg/mL | > 100 µg/mL | > 100 µg/mL | > 100 µg/mL | MIC (Proteus mirabilis, 3855): 12.5 µg/mL; MIC (Proteus vulgaris, 9416; Proteus vulgaris, 9416, 18 h): 12.5 µg/mL; MIC [14]: 100 µg/mL; MIC (Micrococcus luteus, 2495): > 100 µg/mL; MIC [15]: > 100 µg/mL
6 | CC1(C)C(NC(=O)Cc2ccccc2)C(=O)N1S(=O)(=O)O (racemic) [Example 26, (±)-4,4-Dimethyl-2-oxo-3-[(phenylacetyl)amino]-1-azetidinesulfonic acid, potassium salt] | > 100 µg/mL | > 100 µg/mL | > 100 µg/mL | 50 µg/mL | > 100 µg/mL | > 100 µg/mL | > 100 µg/mL | > 100 µg/mL | > 100 µg/mL | 100 µg/mL | > 100 µg/mL | > 100 µg/mL | > 100 µg/mL | > 100 µg/mL | > 100 µg/mL | > 100 µg/mL | > 100 µg/mL | > 100 µg/mL | > 100 µg/mL | > 100 µg/mL | MIC (Proteus mirabilis, 3855; read-out: M.I.C.): > 100 µg/mL; MIC (Proteus vulgaris, 9416; 18 hours, read-out: M.I.C.): 100 µg/mL; MIC [14]: > 100 µg/mL; MIC (Micrococcus luteus, 2495): > 100 µg/mL; MIC [15]: > 100 µg/mL
